Reference: patent US20110039721A1, “METHOD FOR PREDICTION ABOUT CARCINOGENICITY OF SUBSTANCE IN RODENT” (Chemicals Evaluation and Research Institute, priority 2007, published 2011)

Legend:
[1] = test system: mRNA expressed from the genes (A) to (D) in rat liver; test: Behavior of genes (mRNA expression level, oligo-DNA microarray) in rat liver after 28-day oral administration; assay type: in vivo
Method in brief: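 Male F344 SPF rats, 5 weeks old, four per group, dosed by oral gavage once daily for 28 days with test chemical or matched-volume solvent. Liver total RNA profiled on oligo-DNA microarray. Change ≥1.5-fold or ≤1/1.5 versus vehicle counted as significant if its direction matched that seen with other carcinogens.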

rodent = conditions: in vivo; cited from earlier work
liver = conditions: in vivo; cited from earlier work
[2] = gene group (A), Unigene No. Rn.167075
[3] = gene group (C), Unigene No. Rn.120914
[4] = gene group (A), Unigene No. Rn.167075, mRNA vs vehicle control group
[5] = gene group (C), Unigene No. Rn.120914, mRNA vs vehicle control group

## Cc1cc(N)ccc1N.O=S(=O)(O)O [TS060, 2,5-Toluenediamine SO4]
[1]; gene group (A), Unigene No. Rn.144554
  Behavior of gene caused by administration of chemical substance, Gene No. 4846: −
[1]; [2]
  Behavior of gene caused by administration of chemical substance, Gene No. 2026: −
  Behavior of gene caused by administration of chemical substance, Gene No. 4218: −
[1]; gene group (A), Unigene No. Rn.5834
  Behavior of gene caused by administration of chemical substance, Gene No. 6182: −
[1]; gene group (A), Unigene No. Rn.9836
  Behavior of gene caused by administration of chemical substance, Gene No. 5600: −
[1]; gene group (B), Unigene No. Rn.1430
  Behavior of gene caused by administration of chemical substance, Gene No. 1494: −
[1]; gene group (B), Unigene No. Rn.19329
  Behavior of gene caused by administration of chemical substance, Gene No. 2045: −
[1]; gene group (B), Unigene No. Rn.21240
  Behavior of gene caused by administration of chemical substance, Gene No. 2203: −
[1]; gene group (C), Unigene No. Rn.106184
  Behavior of gene caused by administration of chemical substance, Gene No. 533: −
[1]; gene group (C), Unigene No. Rn.108075
  Behavior of gene caused by administration of chemical substance, Gene No. 725: −
[1]; gene group (C), Unigene No. Rn.11766
  Behavior of gene caused by administration of chemical substance, Gene No. 1163: +
[1]; gene group (C), Unigene No. Rn.118529
  Behavior of gene caused by administration of chemical substance, Gene No. 4973: −
[1]; gene group (C), Unigene No. Rn.119024
  Behavior of gene caused by administration of chemical substance, Gene No. 4095: −
[1]; [3]
  Behavior of gene caused by administration of chemical substance, Gene No. 1334: −
  Behavior of gene caused by administration of chemical substance, Gene No. 6620: −
[1]; gene group (C), Unigene No. Rn.123063
  Behavior of gene caused by administration of chemical substance, Gene No. 6303: −
[1]; gene group (C), Unigene No. Rn.143213
  Behavior of gene caused by administration of chemical substance, Gene No. 5878: −
[1]; gene group (C), Unigene No. Rn.144946
  Behavior of gene caused by administration of chemical substance, Gene No. 1131: +
[1]; gene group (C), Unigene No. Rn.14744
  Behavior of gene caused by administration of chemical substance, Gene No. 1562: −
[1]; gene group (C), Unigene No. Rn.1647
  Behavior of gene caused by administration of chemical substance, Gene No. 1741: −
[1]; gene group (C), Unigene No. Rn.164817
  Behavior of gene caused by administration of chemical substance, Gene No. 893: +
[1]; gene group (C), Unigene No. Rn.167685
  Behavior of gene caused by administration of chemical substance, Gene No. 6026: −
[1]; gene group (C), Unigene No. Rn.185941
  Behavior of gene caused by administration of chemical substance, Gene No. 154: −
[1]; gene group (C), Unigene No. Rn.18728
  Behavior of gene caused by administration of chemical substance, Gene No. 1993: −
[1]; gene group (C), Unigene No. Rn.201760
  Behavior of gene caused by administration of chemical substance, Gene No. 813: −
[1]; gene group (C), Unigene No. Rn.23969
  Behavior of gene caused by administration of chemical substance, Gene No. 2494: −
[1]; gene group (C), Unigene No. Rn.24561
  Behavior of gene caused by administration of chemical substance, Gene No. 2546: −
[1]; gene group (C), Unigene No. Rn.43232
  Behavior of gene caused by administration of chemical substance, Gene No. 3776: −
[1]; gene group (C), Unigene No. Rn.4620
  Behavior of gene caused by administration of chemical substance, Gene No. 3929: +
[1]; gene group (C), Unigene No. Rn.9757
  Behavior of gene caused by administration of chemical substance, Gene No. 1119: −
[1]; gene group (C), Unigene No. Rn.9779
  Behavior of gene caused by administration of chemical substance, Gene No. 6742: −
[1]; gene group (C), Unigene No. Rn.9862
  Behavior of gene caused by administration of chemical substance, Gene No. 5634: +
[1]; gene group (D), Unigene No. Rn.9939
  Behavior of gene caused by administration of chemical substance, Gene No. 5726: −
rodent
  Carcinogenicity: C−
liver
  Liver carcinogenicity: Cr−

## CC(=O)Nc1ccc(C(=O)CCl)cc1 [TS072, 4-(Chloroacetyl)acetanilide]
[1]; rat, in vivo
  Behavior of gene caused by administration of chemical substance, Gene No. 154: −
  Behavior of gene caused by administration of chemical substance, Gene No. 533: +
  Behavior of gene caused by administration of chemical substance, Gene No. 725: +
  Behavior of gene caused by administration of chemical substance, Gene No. 813: −
  Behavior of gene caused by administration of chemical substance, Gene No. 893: −
  Behavior of gene caused by administration of chemical substance, Gene No. 1119: −
  Behavior of gene caused by administration of chemical substance, Gene No. 1131: −
  Behavior of gene caused by administration of chemical substance, Gene No. 1163: +
  Behavior of gene caused by administration of chemical substance, Gene No. 1334: −
  Behavior of gene caused by administration of chemical substance, Gene No. 1494: +
  Behavior of gene caused by administration of chemical substance, Gene No. 1562: −
  Behavior of gene caused by administration of chemical substance, Gene No. 1741: −
  Behavior of gene caused by administration of chemical substance, Gene No. 1993: −
  Behavior of gene caused by administration of chemical substance, Gene No. 2026: +
  Behavior of gene caused by administration of chemical substance, Gene No. 2045: +
  Behavior of gene caused by administration of chemical substance, Gene No. 2203: +
  Behavior of gene caused by administration of chemical substance, Gene No. 2494: −
  Behavior of gene caused by administration of chemical substance, Gene No. 2546: −
  Behavior of gene caused by administration of chemical substance, Gene No. 3776: +
  Behavior of gene caused by administration of chemical substance, Gene No. 3929: −
  Behavior of gene caused by administration of chemical substance, Gene No. 4095: −
  Behavior of gene caused by administration of chemical substance, Gene No. 4218: +
  Behavior of gene caused by administration of chemical substance, Gene No. 4846: +
  Behavior of gene caused by administration of chemical substance, Gene No. 4973: +
  Behavior of gene caused by administration of chemical substance, Gene No. 5600: +
  Behavior of gene caused by administration of chemical substance, Gene No. 5634: −
  Behavior of gene caused by administration of chemical substance, Gene No. 5726: −
  Behavior of gene caused by administration of chemical substance, Gene No. 5878: −
  Behavior of gene caused by administration of chemical substance, Gene No. 6026: −
  Behavior of gene caused by administration of chemical substance, Gene No. 6182: +
  Behavior of gene caused by administration of chemical substance, Gene No. 6303: −
  Behavior of gene caused by administration of chemical substance, Gene No. 6620: −
  Behavior of gene caused by administration of chemical substance, Gene No. 6742: −
rodent
  Carcinogenicity: C−
liver
  Liver carcinogenicity: Cr−

## O=C(O)C1C(C(=O)O)C2(Cl)C(Cl)=C(Cl)C1(Cl)C2(Cl)Cl (stereo not drawn) [TS078, Chlorendic acid]
[1]; gene group (A), Unigene No. Rn.144554, mRNA vs vehicle control group
  Behavior of gene caused by administration of chemical substance, Gene No. 4846: −
[1]; [4]
  Behavior of gene caused by administration of chemical substance, Gene No. 2026: +
  Behavior of gene caused by administration of chemical substance, Gene No. 4218: −
[1]; gene group (A), Unigene No. Rn.5834, mRNA vs vehicle control group
  Behavior of gene caused by administration of chemical substance, Gene No. 6182: −
[1]; gene group (A), Unigene No. Rn.9836, mRNA vs vehicle control group
  Behavior of gene caused by administration of chemical substance, Gene No. 5600: −
[1]; gene group (B), Unigene No. Rn.1430, mRNA vs vehicle control group
  Behavior of gene caused by administration of chemical substance, Gene No. 1494: +
[1]; gene group (B), Unigene No. Rn.19329, mRNA vs vehicle control group
  Behavior of gene caused by administration of chemical substance, Gene No. 2045: +
[1]; gene group (B), Unigene No. Rn.21240, mRNA vs vehicle control group
  Behavior of gene caused by administration of chemical substance, Gene No. 2203: +
[1]; gene group (C), Unigene No. Rn.106184, mRNA vs vehicle control group
  Behavior of gene caused by administration of chemical substance, Gene No. 533: −
[1]; gene group (C), Unigene No. Rn.108075, mRNA vs vehicle control group
  Behavior of gene caused by administration of chemical substance, Gene No. 725: −
[1]; gene group (C), Unigene No. Rn.11766, mRNA vs vehicle control group
  Behavior of gene caused by administration of chemical substance, Gene No. 1163: +
[1]; gene group (C), Unigene No. Rn.118529, mRNA vs vehicle control group
  Behavior of gene caused by administration of chemical substance, Gene No. 4973: +
[1]; gene group (C), Unigene No. Rn.119024, mRNA vs vehicle control group
  Behavior of gene caused by administration of chemical substance, Gene No. 4095: −
[1]; [5]
  Behavior of gene caused by administration of chemical substance, Gene No. 1334: −
  Behavior of gene caused by administration of chemical substance, Gene No. 6620: −
[1]; gene group (C), Unigene No. Rn.123063, mRNA vs vehicle control group
  Behavior of gene caused by administration of chemical substance, Gene No. 6303: −
[1]; gene group (C), Unigene No. Rn.143213, mRNA vs vehicle control group
  Behavior of gene caused by administration of chemical substance, Gene No. 5878: −
[1]; gene group (C), Unigene No. Rn.144946, mRNA vs vehicle control group
  Behavior of gene caused by administration of chemical substance, Gene No. 1131: −
[1]; gene group (C), Unigene No. Rn.14744, mRNA vs vehicle control group
  Behavior of gene caused by administration of chemical substance, Gene No. 1562: −
[1]; gene group (C), Unigene No. Rn.1647, mRNA vs vehicle control group
  Behavior of gene caused by administration of chemical substance, Gene No. 1741: −
[1]; gene group (C), Unigene No. Rn.164817, mRNA vs vehicle control group
  Behavior of gene caused by administration of chemical substance, Gene No. 893: −
[1]; gene group (C), Unigene No. Rn.167685, mRNA vs vehicle control group
  Behavior of gene caused by administration of chemical substance, Gene No. 6026: −
[1]; gene group (C), Unigene No. Rn.185941, mRNA vs vehicle control group
  Behavior of gene caused by administration of chemical substance, Gene No. 154: −
[1]; gene group (C), Unigene No. Rn.18728, mRNA vs vehicle control group
  Behavior of gene caused by administration of chemical substance, Gene No. 1993: −
[1]; gene group (C), Unigene No. Rn.201760, mRNA vs vehicle control group
  Behavior of gene caused by administration of chemical substance, Gene No. 813: −
[1]; gene group (C), Unigene No. Rn.23969, mRNA vs vehicle control group
  Behavior of gene caused by administration of chemical substance, Gene No. 2494: −
[1]; gene group (C), Unigene No. Rn.24561, mRNA vs vehicle control group
  Behavior of gene caused by administration of chemical substance, Gene No. 2546: −
[1]; gene group (C), Unigene No. Rn.43232, mRNA vs vehicle control group
  Behavior of gene caused by administration of chemical substance, Gene No. 3776: −
[1]; gene group (C), Unigene No. Rn.4620, mRNA vs vehicle control group
  Behavior of gene caused by administration of chemical substance, Gene No. 3929: −
[1]; gene group (C), Unigene No. Rn.9757, mRNA vs vehicle control group
  Behavior of gene caused by administration of chemical substance, Gene No. 1119: −
[1]; gene group (C), Unigene No. Rn.9779, mRNA vs vehicle control group
  Behavior of gene caused by administration of chemical substance, Gene No. 6742: −
[1]; gene group (C), Unigene No. Rn.9862, mRNA vs vehicle control group
  Behavior of gene caused by administration of chemical substance, Gene No. 5634: +
[1]; gene group (D), Unigene No. Rn.9939, mRNA vs vehicle control group
  Behavior of gene caused by administration of chemical substance, Gene No. 5726: −
rodent
  Carcinogenicity: C+
liver
  Liver carcinogenicity: Cr+
